The record followed here is patent publication US20220162191A1, “SMALL MOLECULE MODULATORS OF IL-17” (LEO PHARMA A/S, priority 2019, published 2022).

SMILES strings stand for the structures. pEC50: −log10 of the molar value.

The term pEC50 denotes the negative decadic logarithm of the EC50, by convention in mol/L.

The assay deals with T1, human IL-17AA (Homo sapiens, UniProt Q16552).
T1 construct: host or cells: HEK (human embryonic kidney) cells
T1 sequence (Q16552 24-155) 1: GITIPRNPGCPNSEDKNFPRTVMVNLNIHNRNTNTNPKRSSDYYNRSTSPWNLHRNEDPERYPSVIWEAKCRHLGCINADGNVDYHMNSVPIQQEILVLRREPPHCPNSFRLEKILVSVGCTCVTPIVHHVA
T1 sequence (Q16552 24-155) 2: T1 sequence (Q16552 24-155) 1
The assay can be described thus: IL-8 release assay in human epithelial keratinocytes adult (HEKa). The format is cell-based. Conditions: 3 ng/ml human IL-17AA + 10 ng/ml human TNFalpha, 68-72 h, IL-8 by HTRF, read-out: Rel EC50 L-8 release assay. The method in brief:
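IL-8 secretion, quantified by HTRF (665/620 nm) as percent of controls, served as the readout after 68–72 h culture of HEKa cells with compound plus IL-17AA (3 ng/ml final) and TNF-alpha (10 ng/ml final). Four-parameter logistic curves gave relative IC50 and Emax.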
On the technique in general: Time-resolved FRET reads energy transfer from a long-lived donor to a nearby acceptor.
Take `Cc1nocc1C(=O)NC(Cc1cc(-c2cccc(C(=O)N3CC(F)C3)c2)ccc1Cl)C(=O)Nc1ccc(-c2nncn2C)cc1` (stereo not shown) [Example 120, N-[1-[[2-chloro-5-[3-(3-fluoroazetidine-1-carbonyl)phenyl]phenyl]methyl]-2-[4-(4-methyl-1,2,4-triazol-3-yl)anilino]-2-oxo-ethyl]-3-methyl-isoxazole-4-carboxamide]: the pEC50 was 6.00 to 7.00.

For `Cc1ncn(C)c1-c1ccc(NC(=O)[C@H](Cc2cc(-c3cccc(C(C)(C)O)c3)ccc2Cl)NC(=O)c2ccnn2C)cc1` [Example 181, N-[(1S)-[[2-chloro-5-[3-(1-hydroxy-1-methyl-ethyl)phenyl]phenyl]methyl]-2-[4-(3,5-dimethylimidazol-4-yl)anilino]-2-oxo-ethyl]-2-methyl-pyrazole-3-carboxamide], the pEC50 was more than 7.00.

As for `Cn1cncc1-c1ccc(NC(=O)C(Cc2cc(-c3ccnc(OCC4CC4)c3)ccc2Cl)NC(=O)c2ccnn2C)cc1` (stereo not shown) [Example 166, N-[1-[[2-chloro-5-[2-(cyclopropylmethoxy)-4-pyridyl]phenyl]methyl]-2-[4-(3-methylimidazol-4-yl)anilino]-2-oxo-ethyl]-2-methyl-pyrazole-3-carboxamide], the pEC50 was 6.00 to 7.00.

For `Cc1nocc1C(=O)NC(Cc1cc(-c2cccc(C(=O)N3CCC3)c2)ccc1Cl)C(=O)Nc1ccc(-c2nncn2C)cc1` (stereo not shown) [Example 113, N-[1-[[5-[3-(azetidine-1-carbonyl)phenyl]-2-chloro-phenyl]methyl]-2-[4-(4-methyl-1,2,4-triazol-3-yl)anilino]-2-oxo-ethyl]-3-methyl-isoxazole-4-carboxamide], the pEC50 was less than 6.00.

Take `Cn1cnnc1-c1ccc(NC(=O)C(Cc2cc(-c3cccc(OC(F)(F)F)c3)ccc2Cl)NC(=O)c2ccnn2C)cc1` (stereo not shown) [Example 111, N-[1-[[2-chloro-5-[3-(trifluoromethoxy)phenyl]phenyl]methyl]-2-[4-(4-methyl-1,2,4-triazol-3-yl)anilino]-2-oxo-ethyl]-2-methyl-pyrazole-3-carboxamide]: the pEC50 was 6.00 to 7.00.

For `Cc1n[nH]c(C)c1-c1ccc(NC(=O)[C@@H](NC(=O)c2ccnn2C)[C@@H]2CCCc3ccc(-c4ccc(=O)n(C(C)C)c4)cc32)cc1O` [Example 46, N-[(1S)-2-[4-(3,5-dimethyl-1H-pyrazol-4-yl)-3-hydroxy-anilino]-1-[(1R)-7-(1-isopropyl-6-oxo-3-pyridyl)tetralin-1-yl]-2-oxo-ethyl]-2-methyl-pyrazole-3-carboxamide], the pEC50 was more than 7.00.

`Cc1n[nH]cc1-c1ccc(NC(=O)C(NC(=O)c2ccnn2C)C(c2ccccc2)c2cccc(-c3ccc(=O)n(C(C)C)c3)c2)cc1` (single isomer, unassigned; diastereomer 3) [Example 237, N-[1-[[3-(1-isopropyl-6-oxo-3-pyridyl)phenyl]-phenyl-methyl]-2-[4-(3-methyl-1H-pyrazol-4-yl)anilino]-2-oxo-ethyl]-2-methyl-pyrazole-3-carboxamide (Diastereomer 3)]: the pEC50 is less than 6.00.

Consider `Cc1cnn(C)c1-c1ccc(NC(=O)[C@H](Cc2cc(-c3ccc(=O)n(C(C)C)c3)ccc2Cl)NC(=O)C2(C)CC2)cc1` [Example 334, N-[(1S)-1-[[2-chloro-5-(1-isopropyl-6-oxo-3-pyridyl)phenyl]methyl]-2-[4-(2,4-dimethylpyrazol-3-yl)anilino]-2-oxo-ethyl]-1-methyl-cyclopropanecarboxamide], for which the pEC50 is 6.00 to 7.00.

As to `Cc1n[nH]c(C)c1-c1ccc(NC(=O)[C@@H](NC(=O)C2(F)CC2)[C@@H]2CCc3ccc(-c4cc(N5CC(F)C5)ncn4)cc32)cc1` [Example 376, N-[(1S)-2-[4-(3,5-dimethyl-1H-pyrazol-4-yl)anilino]-1-[(1R)-6-[6-(3-fluoroazetidin-1-yl)pyrimidin-4-yl]indan-1-yl]-2-oxo-ethyl]-1-fluoro-cyclopropanecarboxamide], the pEC50 was 6.00 to 7.00.

`Cn1cnnc1-c1ccc(NC(=O)C(Cc2cc(-c3cccc(C4CC4)c3)ccc2Cl)NC(=O)c2ccnn2C)cc1` (stereo not shown) [Example 170, N-[1-[[2-chloro-5-(3-cyclopropylphenyl)phenyl]methyl]-2-[4-(4-methyl-1,2,4-triazol-3-yl)anilino]-2-oxo-ethyl]-2-methyl-pyrazole-3-carboxamide]: the pEC50 was 6.00 to 7.00.

On to `C[C@@H]1CNCCN1c1cc(-c2ccc(Cl)c(C[C@H](NC(=O)c3ccnn3C)C(=O)Nc3ccc(-c4cncn4C)cc3)c2)ccn1` [Example 207, N-[(1S)-1-[[2-chloro-5-[2-[(2R)-2-methylpiperazin-1-yl]-4-pyridyl]phenyl]methyl]-2-[4-(3-methylimidazol-4-yl)anilino]-2-oxo-ethyl]-2-methyl-pyrazole-3-carboxamide], for which the pEC50 is more than 7.00.

As for `CC(C)n1cc(-c2cccc(C(c3ccccc3)C(NC(=O)OC3CC3)C(=O)Nc3ccc(-c4cncn4C)cc3)c2)ccc1=O` (single isomer, unassigned; diastereomer 4) [Example 241, cyclopropyl N-[1-[[3-(1-isopropyl-6-oxo-3-pyridyl)phenyl]-phenyl-methyl]-2-[4-(3-methylimidazol-4-yl)anilino]-2-oxo-ethyl]carbamate (Diastereomer 4)], the pEC50 is less than 6.00.

`Cc1cnn(C)c1-c1ccc(NC(=O)[C@@H](NC(=O)C2(F)CC2)[C@@H]2CCCc3ccc(-c4ccnc(N5C[C@@H]6C[C@H]5CN6)c4)cc32)cc1` [Example 392, N-[(1S)-1-[(1R)-7-[2-[(1S,4S)-2,5-diazabicyclo[2.2.1]heptan-2-yl]-4-pyridyl]tetralin-1-yl]-2-[4-(2,4-dimethylpyrazol-3-yl)anilino]-2-oxo-ethyl]-1-fluoro-cyclopropanecarboxamide]: the negative logarithm of the EC50 (pEC50) was 6.00 to 7.00.

Take `Cc1n[nH]c(C)c1-c1ccc(NC(=O)[C@H](Cc2cc(-c3cccc(C(C)(C)N)c3)ccc2Cl)NC(=O)c2ccnn2C)cc1` [Example 59, N-[(1S)-1-[[5-[3-(1-amino-1-methyl-ethyl)phenyl]-2-chloro-phenyl]methyl]-2-[4-(3,5-dimethyl-1H-pyrazol-4-yl)anilino]-2-oxo-ethyl]-2-methyl-pyrazole-3-carboxamide]: the pEC50 was more than 7.00.

As for `CC(C)n1cc(-c2ccc(Cl)c(CC(NC(=O)C3(F)CC3)C(=O)Nc3ccc(-c4nncn4C)cc3)c2)cc(C(F)(F)F)c1=O` (stereo not shown) [Example 307, N-[1-[[2-chloro-5-[1-isopropyl-6-oxo-5-(trifluoromethyl)-3-pyridyl]phenyl]methyl]-2-[4-(4-methyl-1,2,4-triazol-3-yl)anilino]-2-oxo-ethyl]-1-fluoro-cyclopropanecarboxamide], the pEC50 was less than 6.00.

In the case of `Cc1nc(-c2ccc3c(c2)[C@H]([C@H](NC(=O)C2(F)CC2)C(=O)Nc2ccc(-c4c(C)n[nH]c4C)cc2)CC3)cc(N2C[C@@H]3C[C@H]2CO3)n1` [Example 366, N-[(1S)-2-[4-(3,5-dimethyl-1H-pyrazol-4-yl)anilino]-1-[(1R)-6-[2-methyl-6-[(1S,4S)-2-oxa-5-azabicyclo[2.2.1]heptan-5-yl]pyrimidin-4-yl]indan-1-yl]-2-oxo-ethyl]-1-fluoro-cyclopropanecarboxamide], the pEC50 was 6.00 to 7.00.
